We go through 1 compound from article PMC8249783, “A novel multikinase inhibitor SKLB‐YTH‐60 ameliorates inflammation and fibrosis in bleomycin‐induced lung fibrosis mouse models” (Cell Proliferation, 2021).

Details of series [1]: method as in PMID 25474320. Particulars: 50 mg·kg^−1 oral administration; cited from earlier work.
Series [2] in a line: Determination of thermodynamic solubility. Conditions: thermodynamic from solid, double testing. It counts as physicochemical. As for the experimental part:
Weigh about 1 mg of the test compound into 1.5 mL centrifuge tube and add 0.5 mL various solvents, sonicating for 5 minutes (if the compound is completely dissolved, then added again test compound until a little solid remains). Take the supernatant after centrifugation, diluting to a suitable concentration using and measuring absorbance values by UV spectrophotometer. Weigh 10 mg compound accurately of the test compound into 1.5 mL centrifuge tube and add 1.2 mL methanol solution to prepare 8.3 mg·mL^−1 mother solution. Take the above described mother liquor to prepare the solution in concentrations of 8.3, 4.2, 2.1, 1.0, 0.52, 0.26 mg·mL^−1 then measure absorbance value. With concentration c (mg·mL^−1) as the abscissa, absorbance A as the ordinate, mapping and fitting line to get the standard curve (The correlation coefficient should be greater than 0.998). Calculate solubility according to the standard curve of the linear equation.

Series [3] deals with lung MDSCs and macrophages. The series is described as follows: Flow cytometry of MDSCs and macrophages in lung tissue of BLM mice. It counts as in vivo, C57BL/6 mice. Conditions: 30 mg·kg^−1 i.p. How it is done:
Male C57BL/6 mice (8‐10 weeks old) were purchased from HFK Bioscience Co. Ltd. All animal experiments were permitted by the Institutional Animal Care and Treatment Committee of Sichuan University in China (New Permit Number: 20190524003). Lung fibrosis was induced using BLM treatment (2 mg·kg^−1). All C57BL/6 mice were divided into five groups (n = 10): a BLM + Nintedanib group (Nintedanib, 30 mg·kg^−1), a BLM + YTH‐60 group (YTH‐60, 15 mg·kg^−1 and 30 mg·kg^−1), a control group (Sham), and a bleomycin group (Vehicle). At the beginning, the mice were anaesthetized using 10% chloral hydrate, dissolved BLM with saline and administered intratracheally. To evaluate the preventive effect, the next day after BLM challenge, YTH‐60 and Nintedanib were administered intraperitoneally daily for 13 days (fibroproliferation) to the mice. All mice were sacrificed 24 hours after the last drug injection, the lungs and other organs were taken for the subsequent analysis. To test the therapeutic effect, after the 7th day of BLM treatment, mice were injected intraperitoneally with YTH‐60, Nintedanib and vehicle daily for 7 consecutive days (fibroproliferation).
We analysed the percentage of MDSCs and macrophages by Flow cytometry (FCM). ^22 Use scissors to cut approximately 30 mg of mouse lung tissues into small pieces and use 5 mL of collagenase‐IV with a concentration of 1 mg·mL^−1, digested at 37°C for at least 1 hour. Centrifuge at 400 g for 5 minutes and discard the supernatant. Then, add another 5 mL PBS to resuspend, after precipitation, taken the supernatant and mixed with the corresponding fluorochromium binding antibody, incubate for 30 minutes in the dark at 4°C (MDSCs with PE^−CD11b^−, FITC^−Gr1^− conjugated dual labelling and macrophages with PE^−F4/80^−, FITC^−CD11b^− conjugated dual labelling). The data were acquired with a FACS Canton II NovoCyte (ACEA).

Converted amounts (≈) assume the structure as drawn. Like-named read-outs stand apart in the source and are kept apart here.

Turning to `COC(=O)c1ccc2c(c1)NC(=O)/C2=C(\Nc1ccc(N(C)C(=O)CN2CCN(C)CC2)cc1)c1ccccc1` [Nintedanib, reference compound], the mean bioavailability in series [1] is reported as 11.9%. Moreover, the solubility at 5 min is 9830 ± 420 µg/mL (≈ 18.2 mM) in series [2] (organic solvent or mixture, Acetone, read-out: Solubility, Acetone); 3520 ± 64 µg/mL (≈ 6.53 mM) in series [2] (organic solvent or mixture, Acetonitrile, read-out: Solubility, Acetonitrile); 9750 ± 350 µg/mL (≈ 18.1 mM) in series [2] (organic solvent or mixture, Ethyl acetate, read-out: Solubility, Ethyl acetate); 12500 ± 2200 µg/mL (≈ 23.1 mM) in series [2] (organic solvent or mixture, Ethyl alcohol, read-out: Solubility, Ethyl alcohol); 1930 ± 180 µg/mL (≈ 3.58 mM) in series [2] (saline or isotonic, Normal saline, read-out: Solubility, Normal saline); 280 ± 15 µg/mL (≈ 0.519 mM) in series [2] (Water, read-out: Solubility, Water). In addition, the “percentage of CD11b^+F4/80^+ cells (macrophages) in lung” value in series [3] (day 14, BLM group 19.9%, sham 9.9%) was 13.89%. Besides, the “percentage of CD11b^+Gr1^+ cells (MDSCs) in lung” value in series [3] (day 14, BLM group 20.5%, sham 5.14%) was determined as 10.46%.
